Type in all cases: physicochemical
Data set [1] in a line: Thermal Z-P to E-P isomerization of the kinetically trapped conjugate bases at pH 13. The note with it: 26 µM, pH 13, room temperature, monitored at 429 nm. The source says:
Having confirmed the photochemical behavior of the protonated forms, we next explored their light-responsiveness in the deprotonated state. […] To probe whether Z-P a–c could nonetheless be generated indirectly, we explored a consecutive photoisomerization–deprotonation sequence. Thus, E-P a–cH^+ was first irradiated at 254 nm and pH 6 to enrich the Z population, followed by immediate adjustment of the solution to pH 13. Under these conditions, transient spectroscopic features were observed, consistent with the kinetic trapping of the metastable Z-P a–c species. […]
To gain further insight into the behavior of the metastable Z-bases, absorbance changes of the kinetically trapped state were monitored over time in the dark for the whole P a–c series. […]
(§1) Figure S169. […] Right: Kinetics (monitored at 429 nm) of the isomerization of Z-P a to E-P a (26 µM) at room temperature. k = 7.2 × 10 –4 s–1.
(§2) Figure S170. […] Right: Kinetics (monitored at 429 nm) of the photoisomerization of Z-P a to E-P a (26 µM) upon irradiation at >495 nm. k = 2.5 × 10 –3 s–1. […]
is in blue. Right: Kinetics (monitored at 456 nm) of the isomerization of Z-P b to E-P b (15 µM) at room temperature. k = 8.9 × 10 –5 s–1. […]
is in blue. Right: Kinetics (monitored at 432 nm) of the isomerization of Z-P c to E-P c (16 µM) at room temperature. k = 8.4 × 10 –5 s–1.

The nature of data set [2]: Irradiation of the conjugate bases (E→Z attempt; Z→E at >495 nm). The note with it: 26 µM, pH 13, irradiation at >495 nm, monitored at 429 nm.
Text: Having confirmed the photochemical behavior of the protonated forms, we next explored their light-responsiveness in the deprotonated state. […] To probe whether Z-P a–c could nonetheless be generated indirectly, we explored a consecutive photoisomerization–deprotonation sequence. Thus, E-P a–cH^+ was first irradiated at 254 nm and pH 6 to enrich the Z population, followed by immediate adjustment of the solution to pH 13. Under these conditions, transient spectroscopic features were observed, consistent with the kinetic trapping of the metastable Z-P a–c species. […] These spectroscopic observations enabled the estimation of virtual pK a values for the Z-enriched solutions (Table and Figures S163–168, SI1), which confirmed the reduced acidity of the NH group in the Z-isomers, presumably arising from intramolecular hydrogen-bond formation.
To gain further insight into the behavior of the metastable Z-bases, absorbance changes of the kinetically trapped state were monitored over time in the dark for the whole P a–c series.
7. Thermal Z-P a-c→E-P a-c isomerizations from the PSS […]
as §1, §2

Data set [3] in a line: Thermal Z-PH+ to E-PH+ back-isomerization kinetics. The note with it: Arrhenius analysis, 47, 55 and 64 °C, from 254 nm photostationary state. The text has this: Photoisomerization studies were subsequently carried out in acidic medium (pH = pK a – 2) in order to assess the photoresponse of the protonated species. Under these conditions, the anticipated photoisomerization of the thermally stable E-P a–dH^+ species was investigated by UV–vis absorption spectroscopy under irradiation at 254 nm. […] It is noteworthy that the irradiation wavelength can be extended to 365 nm, yielding virtually the same observations as for 254 nm irradiation (see footnotes of Table ). Irradiation also produced clear NMR spectral changes that support the occurrence of the E→Z isomerization. In essence, the signals Hf–h of the phenyl moiety were only slightly affected, whereas those of the pyridinium and acylhydrazone fragments shifted markedly, consistent with the formation of an intramolecular hydrogen bond in the Z-P a–cH^+ species. The reverse Z→E transformation of the protonated forms P a–cH^+ was also achieved upon irradiation at λ > 420 nm, giving lower quantum yields and less favorable PSDs (Figures S145–S147, S149–154, S1).
5.5. Z-P a-cH+→E-P a-cH+ thermal back-isomerization kinetics.
Figure S155. Absorption spectrum variation during 48h at room temperature from the PSS reached for P aH·Cl (7µM, pH 6, Red) state during 48h. E-isomer absorption spectrum in green.
Even though the kinetics has not been fully completed, it can be observed that it occurs much more slowly than photochemical processes.
To obtain an estimation of P aH·Cl Z→E thermal half-live at room temperature, the Z →E thermal reversion kinetics were monitored starting from the 254nm photostationary state at different temperatures (47, 55 and 64 °C). By tracking the absorbance changes at 420 nm, an Arrhenius analysis was performed, allowing the determination of the activation energy (EA) and the estimation of the thermal half-life at 25 °C.

As for `C[n+]1ccc([N-]/N=C\C(=O)c2ccccc2)cc1` [Z-P a], in data set [1], the “k thermal isomerization Z-P to E-P” value is reported as 7.2 10^–4 s^–1. For the same compound, the “k photoisomerization Z-P to E-P” value in data set [2] is recorded as 2.5 10^–3 s^–1.
For the compound `C[n+]1ccc(N/N=C\C(=O)c2ccccc2)cc1` [Z-P aH^+], the “activation energy E A of thermal Z→E reversion” value in data set [3] is 17.4 kcal·mol^–1.

For the origin of these results see PMC13185115, “Photovermellogens: Minimalistic Pyridinium-Based Acylhydrazones with Photoswitchable Basicity for Operation in Aqueous Media” (The Journal of Organic Chemistry, 2026).
